PubChem BioAssay (NCI)
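Five concentrations, 48 hours, 96-well plates. Abbreviation: GI50, concentration required for 50% inhibition of growth. The concentration for full growth arrest is given as TGI.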

Legend:
Assay in all cases: NCI tumour cell line growth inhibition, 48 h
RXF 393 renal = test system: RXF 393 renal
HOP-92 NSCLC = test system: HOP-92 NSCLC
A549 NSCLC = test system: A549 NSCLC
MOLT-4 leukemia = test system: MOLT-4 leukemia
ACHN renal = test system: ACHN renal
HT29 colon = test system: HT29 colon
A498 renal = test system: A498 renal
EKVX NSCLC = test system: EKVX NSCLC
UACC-62 melanoma = test system: UACC-62 melanoma
DU-145 prostate = test system: DU-145 prostate

## CCCCCCCC(=O)OCC1OC(n2cc(F)c(=O)[nH]c2=O)C(NC(=O)OCc2ccccc2)C(OC(=O)CCCCCCC)C1O (configuration not stated)
RXF 393 renal
  TGI: 64.2 µM
HOP-92 NSCLC
  TGI: 61.4 µM
A549 NSCLC
  TGI: > 100 µM
MOLT-4 leukemia
  TGI: > 100 µM
ACHN renal
  TGI: > 100 µM
HT29 colon
  TGI: > 100 µM
A498 renal
  TGI: > 100 µM
EKVX NSCLC
  TGI: > 100 µM
UACC-62 melanoma
  TGI: 45.7 µM

## O=C(COc1ccc(Cl)cc1)N1N=C(c2ccc([N+](=O)[O-])o2)CC1(O)c1ccccc1 (configuration not stated)
HOP-92 NSCLC
  TGI: 37.7 µM
A549 NSCLC
  TGI: 28.8 µM
MOLT-4 leukemia
  TGI: 47.3 µM
HT29 colon
  TGI: 16.3 µM
UACC-62 melanoma
  TGI: 19.7 µM

## N#Cc1ccc(-c2nc3ccc(Cl)cc3[nH]2)cc1
RXF 393 renal
  TGI: > 100 µM
HOP-92 NSCLC
  TGI: > 100 µM
A549 NSCLC
  TGI: > 100 µM
MOLT-4 leukemia
  TGI: > 100 µM
HT29 colon
  TGI: > 100 µM
EKVX NSCLC
  TGI: > 100 µM

## NC1=NC(c2ccccc2)CC(c2cc(Cl)cc(Br)c2O)=N1 (configuration not stated)
RXF 393 renal
  TGI: 17 µM
HOP-92 NSCLC
  TGI: 38.2 µM
A549 NSCLC
  TGI: 34.6 µM
MOLT-4 leukemia
  TGI: 11.6 µM
ACHN renal
  TGI: 31.5 µM
HT29 colon
  TGI: 27 µM
A498 renal
  TGI: 35.7 µM
EKVX NSCLC
  TGI: 28.2 µM
UACC-62 melanoma
  TGI: 24.6 µM

## N#CC(C(=O)CCC(=O)Nc1ccc(Cl)cc1)c1ccccc1Cl (configuration not stated)
HOP-92 NSCLC
  TGI: > 100 µM
A549 NSCLC
  TGI: > 100 µM
MOLT-4 leukemia
  TGI: > 100 µM
ACHN renal
  TGI: > 100 µM
A498 renal
  TGI: > 100 µM
EKVX NSCLC
  TGI: > 100 µM
UACC-62 melanoma
  TGI: > 100 µM

## O=C(O)CN(c1ccccc1)S(=O)(=O)c1ccc(Cl)cc1
RXF 393 renal
  TGI: > 100 µM
HOP-92 NSCLC
  TGI: > 100 µM
A549 NSCLC
  TGI: > 100 µM
MOLT-4 leukemia
  TGI: > 100 µM
ACHN renal
  TGI: > 100 µM
HT29 colon
  TGI: > 100 µM
A498 renal
  TGI: > 100 µM
EKVX NSCLC
  TGI: > 100 µM
UACC-62 melanoma
  TGI: > 100 µM

## C[C@@H](Oc1cc(NS(=O)(=O)N2CCC2)nc(SCc2cccc(F)c2F)n1)[C@@H](O)CO
RXF 393 renal
  GI50: > 100 µM
  TGI: > 100 µM
HOP-92 NSCLC
  GI50: > 100 µM
  TGI: > 100 µM
A549 NSCLC
  GI50: > 100 µM
  TGI: > 100 µM
MOLT-4 leukemia
  GI50: > 100 µM
  TGI: > 100 µM
ACHN renal
  GI50: > 100 µM
  TGI: > 100 µM
HT29 colon
  GI50: > 100 µM
  TGI: > 100 µM
DU-145 prostate
  GI50: > 100 µM
  TGI: > 100 µM
EKVX NSCLC
  GI50: > 100 µM
  TGI: > 100 µM
UACC-62 melanoma
  GI50: > 100 µM
  TGI: > 100 µM

## COc1cc2ccnc3c2c(c1OC)CC1CC(O)C(OC)CC31 (configuration not stated)
HOP-92 NSCLC
  TGI: 81.2 µM
A549 NSCLC
  TGI: > 100 µM
MOLT-4 leukemia
  TGI: > 100 µM
ACHN renal
  TGI: > 100 µM
HT29 colon
  TGI: > 100 µM
EKVX NSCLC
  TGI: 88.6 µM
UACC-62 melanoma
  TGI: > 100 µM

## CCCC1C(=O)C(CC)Cc2c(OC)ccc(OC)c21 (configuration not stated)
RXF 393 renal
  TGI: > 100 µM
HOP-92 NSCLC
  TGI: > 100 µM
A549 NSCLC
  TGI: > 100 µM
MOLT-4 leukemia
  TGI: > 100 µM
ACHN renal
  TGI: > 100 µM
HT29 colon
  TGI: > 100 µM
EKVX NSCLC
  TGI: > 100 µM
UACC-62 melanoma
  TGI: > 100 µM

## O=C(O)CCSC(=O)Nc1cccc([N+](=O)[O-])c1
RXF 393 renal
  TGI: > 100 µM
A549 NSCLC
  TGI: > 100 µM
MOLT-4 leukemia
  TGI: > 100 µM
ACHN renal
  TGI: > 100 µM
HT29 colon
  TGI: > 100 µM
A498 renal
  TGI: > 100 µM
EKVX NSCLC
  TGI: > 100 µM

## O=C1C(Cl)=C(Nc2cccc(O)c2)C(=O)N1c1cccc(Cl)c1
RXF 393 renal
  GI50: 25.5 µM
  TGI: > 100 µM
A549 NSCLC
  GI50: 81.1 µM
  TGI: > 100 µM
MOLT-4 leukemia
  GI50: 23 µM
  TGI: 71.4 µM
ACHN renal
  GI50: 85.4 µM
  TGI: > 100 µM
HT29 colon
  GI50: 37.3 µM
  TGI: > 100 µM
DU-145 prostate
  GI50: 69.5 µM
  TGI: > 100 µM
EKVX NSCLC
  GI50: > 100 µM
  TGI: > 100 µM
UACC-62 melanoma
  GI50: 27 µM
  TGI: > 100 µM

## CC(C)Cc1ccc(C(C)/C=C2\CCC(CN3CCCC3)C2=O)cc1 (configuration not stated)
RXF 393 renal
  TGI: 34.3 µM
HOP-92 NSCLC
  TGI: 38 µM
A549 NSCLC
  TGI: 35 µM
MOLT-4 leukemia
  TGI: 9.64 µM
ACHN renal
  TGI: 24.3 µM
HT29 colon
  TGI: 23.2 µM
A498 renal
  TGI: 36.5 µM
EKVX NSCLC
  TGI: 33.3 µM
UACC-62 melanoma
  TGI: 31.2 µM

## C=CCCC(C)N(C(=O)OC(C)(C)C)S(=O)(=O)c1ccc(C)cc1 (configuration not stated)
HOP-92 NSCLC
  TGI: > 100 µM
A549 NSCLC
  TGI: > 100 µM
MOLT-4 leukemia
  TGI: > 100 µM
ACHN renal
  TGI: > 100 µM
HT29 colon
  TGI: > 100 µM
UACC-62 melanoma
  TGI: > 100 µM

## CC(=O)NC1C(OCc2ccccc2)OC(COC(=O)CCCCCNc2ccc([N+](=O)[O-])c3[nH]c4ccc(O)cc4c(=O)c23)C(O)C1OC(C)C(=O)N[C@@H](C)C(=O)N[C@H](CCC(=O)OCc1ccccc1)C(N)=O (some centres not stated)
RXF 393 renal
  TGI: 3.26 µM
HOP-92 NSCLC
  TGI: 3.61 µM
A549 NSCLC
  TGI: 6.92 µM
MOLT-4 leukemia
  TGI: 5.56 µM
ACHN renal
  TGI: 34.5 µM
HT29 colon
  TGI: 3.09 µM
A498 renal
  TGI: 7.29 µM
EKVX NSCLC
  TGI: 17.3 µM
UACC-62 melanoma
  TGI: 4.27 µM

## CC(=O)NNC(=S)/N=C/c1c(O)cc(C)oc1=O
HOP-92 NSCLC
  TGI: > 100 µM
A549 NSCLC
  TGI: > 100 µM
MOLT-4 leukemia
  TGI: > 100 µM
ACHN renal
  TGI: > 100 µM
HT29 colon
  TGI: > 100 µM
DU-145 prostate
  TGI: > 100 µM
EKVX NSCLC
  TGI: > 100 µM

## NCCCn1c2c(c3cc4c(cc3c1=O)OCO4)C(=O)c1ccccc1-2
HOP-92 NSCLC
  GI50: 0.437 µM
  TGI: 2.11 µM
MOLT-4 leukemia
  GI50: 0.0223 µM
  TGI: 0.0742 µM
ACHN renal
  GI50: 0.119 µM
  TGI: 1.22 µM
HT29 colon
  GI50: 0.0575 µM
  TGI: > 100 µM
DU-145 prostate
  GI50: 0.907 µM
  TGI: 2.63 µM
EKVX NSCLC
  GI50: 0.842 µM
  TGI: 2.55 µM
UACC-62 melanoma
  GI50: 2.06 µM
  TGI: 5.5 µM

## COc1cc([C@@H]2c3cc4c(cc3[C@@H](NCc3ccc(C#N)cc3)C3COC(=O)[C@@H]32)OCO4)cc(OC)c1O (some centres not stated)
RXF 393 renal
  TGI: 21.5 µM
HOP-92 NSCLC
  TGI: 49.4 µM
A549 NSCLC
  TGI: 1.54 µM
MOLT-4 leukemia
  TGI: 1.38 µM
ACHN renal
  TGI: 1.55 µM
HT29 colon
  TGI: 3.15 µM
A498 renal
  TGI: 3.84 µM
EKVX NSCLC
  TGI: 5.76 µM
UACC-62 melanoma
  TGI: 2.75 µM

## C[C@]12CC(C#N)C(=O)C(O)=C1CC[C@@H]1C2CC[C@@]2(C)C1CC[C@@H]2O (some centres not stated)
RXF 393 renal
  TGI: 44.4 µM
HOP-92 NSCLC
  TGI: 76.4 µM
A549 NSCLC
  TGI: > 100 µM
MOLT-4 leukemia
  TGI: > 100 µM
ACHN renal
  TGI: > 100 µM
HT29 colon
  TGI: > 100 µM
A498 renal
  TGI: 28.9 µM
EKVX NSCLC
  TGI: > 100 µM
UACC-62 melanoma
  TGI: 83.8 µM

## CC(C)c1cccc(C(C)C)c1N=C(N)C#N
RXF 393 renal
  TGI: > 100 µM
HOP-92 NSCLC
  TGI: > 100 µM
A549 NSCLC
  TGI: > 61.1 µM
MOLT-4 leukemia
  TGI: > 66 µM
ACHN renal
  TGI: > 100 µM
HT29 colon
  TGI: > 100 µM
A498 renal
  TGI: > 100 µM
EKVX NSCLC
  TGI: > 100 µM
UACC-62 melanoma
  TGI: 99.1 µM

## NNC(=O)CCC(=O)Nc1ccc(Cl)cc1Cl
RXF 393 renal
  TGI: > 100 µM
HOP-92 NSCLC
  TGI: > 100 µM
A549 NSCLC
  TGI: > 100 µM
MOLT-4 leukemia
  TGI: > 100 µM
ACHN renal
  TGI: > 100 µM
HT29 colon
  TGI: > 100 µM
A498 renal
  TGI: > 100 µM
UACC-62 melanoma
  TGI: > 100 µM

## CC1Cc2c(N)nc(N3CCOCC3)nc2NC1=O (configuration not stated)
RXF 393 renal
  TGI: > 100 µM
A549 NSCLC
  TGI: > 100 µM
MOLT-4 leukemia
  TGI: > 100 µM
ACHN renal
  TGI: > 100 µM
HT29 colon
  TGI: > 100 µM
EKVX NSCLC
  TGI: > 100 µM
UACC-62 melanoma
  TGI: > 100 µM

## Cc1ccc(C(=O)CCC2C(=O)CC(C)(C)CC2=O)cc1
RXF 393 renal
  TGI: > 100 µM
HOP-92 NSCLC
  TGI: > 100 µM
A549 NSCLC
  TGI: > 100 µM
MOLT-4 leukemia
  TGI: > 100 µM
ACHN renal
  TGI: > 100 µM
HT29 colon
  TGI: > 100 µM
DU-145 prostate
  TGI: > 100 µM
EKVX NSCLC
  TGI: > 100 µM
UACC-62 melanoma
  TGI: > 100 µM
